Patent US20230373985A1 (Origenis Gmbh, priority 2020, published 2023)

What follows are compounds tested against T1, wt human TYK2, catalytic site (Homo sapiens, UniProt P29597) (assay: HTRF KinEASE assay, TYK2). Conditions: 1 μM ATP; read-out: IC50, Activity Toward TYK2.
T1 construct: wt human TYK2, catalytic site; purchased SignalChem
T1 sequence (P29597 897-1176 limits assumed): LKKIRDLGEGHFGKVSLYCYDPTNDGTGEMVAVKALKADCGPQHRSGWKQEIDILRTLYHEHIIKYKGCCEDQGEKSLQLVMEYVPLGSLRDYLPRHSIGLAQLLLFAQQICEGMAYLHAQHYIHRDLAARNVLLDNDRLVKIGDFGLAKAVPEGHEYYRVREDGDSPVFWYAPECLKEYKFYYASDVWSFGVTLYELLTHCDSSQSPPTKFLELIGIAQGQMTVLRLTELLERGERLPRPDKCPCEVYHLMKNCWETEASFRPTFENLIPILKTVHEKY
Assay type: biochemical
Experimental: Basic protocol for HTRF KinEASE assay (Cisbio/FRA) inhibitor studies involved two steps: • Enzymatic step: Addition of 4 μL of test compound in corresponding DMSO dilutions, 4 μL of kinase/substrate mixture, 2 μL of ATP into 384 well small volume plates. Incubation for at least 30 minutes at room temperature. • Detection step: Addition of 5 μL antibody and 5 μL streptavidin-XL665, read plate after 60 minutes. Data analysis of emission ratios according KinEASE assay protocol.
(§1) Kinase and assay components were adjusted to final concentrations according to kit protocol. For TYK2: 2 nM wt human TYK2, catalytic site (SignalChem/CAN), 1 μM HTRF KinEASE-TK Substrate-biotin, 1 μM ATP in 1× Kinase Buffer. For JAK1: 4 nM wt human JAK1, catalytic site (ThermoFisher/USA), 1 μM HTRF KinEASE-TK Substrate-biotin, 2.5 μM ATP in 1× Kinase Buffer. For JAK2: 1 nM wt human JAK2, catalytic site (SignalChem/CAN), 1 μM HTRF KinEASE-TK Substrate-biotin, 100 μM ATP in 1× Kinase Buffer.
as §1
For `Cc1cc(Nc2cn(-c3c(Cl)cccc3Cl)nc2C(N)=O)cnc1-n1cccn1` [compound 346, 1-(2,6-dichlorophenyl)-4-((5-methyl-6-(1H-pyrazol-1-yl)pyridin-3-yl)amino)-1H-pyrazole-3-carboxamide], the IC50 was 100 to 1000 nM. `CCc1ncnn1-c1ccc(Nc2cn(-c3c(Cl)cccc3Cl)nc2C(N)=O)cn1` [compound 343, 1-(2,6-dichlorophenyl)-4-((6-(5-ethyl-1H-1,2,4-triazol-1-yl)pyridin-3-yl)amino)-1H-pyrazole-3-carboxamide] was tested, and the IC50 was 100 to 1000 nM. For `COCc1nc(C(F)(F)F)nn1-c1ccc(Nc2cn(-c3c(Cl)cccc3Cl)nc2C(N)=O)cn1` [compound 328, 1-(2,6-dichlorophenyl)-4-((6-(5-(methoxymethyl)-3-(trifluoromethyl)-1H-1,2,4-triazol-1-yl)pyridin-3-yl)amino)-1H-pyrazole-3-carboxamide], the IC50 was 100 to 1000 nM. `CC(C)c1nc(C(F)(F)F)nn1-c1ccc(Nc2cn(-c3c(Cl)cccc3Cl)nc2C(N)=O)cc1` [compound 274, 1-(2,6-dichlorophenyl)-4-((4-(5-isopropyl-3-(trifluoromethyl)-1H-1,2,4-triazol-1-yl)phenyl)amino)-1H-pyrazole-3-carboxamide] gave an IC50 of 100 to 1000 nM. `NC(=O)c1nn(-c2c(Cl)cccc2Cl)cc1Nc1ccc(C(=O)N2CC(F)(F)C(F)(F)C2)cn1` [compound 369, 1-(2,6-dichlorophenyl)-4-((5-(3,3,4,4-tetrafluoropyrrolidine-1-carbonyl)pyridin-2-yl)amino)-1H-pyrazole-3-carboxamide] showed an IC50 of 100 to 1000 nM. In the case of `CCCc1nc(C(F)(F)F)nn1-c1ccc(Nc2cn(-c3c(Cl)cccc3Cl)nc2C(N)=O)cc1` [compound 279, 1-(2,6-dichlorophenyl)-4-((4-(5-propyl-3-(trifluoromethyl)-1H-1,2,4-triazol-1-yl)phenyl)amino)-1H-pyrazole-3-carboxamide], the IC50 is reported as 100 to 1000 nM. `NC(=O)c1nn(-c2c(Cl)cccc2Cl)cc1Nc1ccc(C(=O)N2CC[C@H](N)C2)cn1` [compound 368, (S)-4-((5-(3-aminopyrrolidine-1-carbonyl)pyridin-2-yl)amino)-1-(2,6-dichlorophenyl)-1H-pyrazole-3-carboxamide] was tested, and the IC50 was 100 to 1000 nM. With `CCc1nc(C(F)(F)F)nn1-c1ccc(Nc2cn(-c3c(Cl)cccc3Cl)nc2C(N)=O)cn1` [compound 329, 1-(2,6-dichlorophenyl)-4-((6-(5-ethyl-3-(trifluoromethyl)-1H-1,2,4-triazol-1-yl)pyridin-3-yl)amino)-1H-pyrazole-3-carboxamide] the IC50 was 100 to 1000 nM. `CN(C)CCn1cc(C(F)(F)F)nc1-c1ccc(Nc2cn(-c3c(Cl)cccc3Cl)nc2C(N)=O)cc1` [compound 306, 1-(2,6-dichlorophenyl)-4-((4-(1-(2-(dimethylamino)ethyl)-4-(trifluoromethyl)-1H-imidazol-2-yl)phenyl)amino)-1H-pyrazole-3-carboxamide] showed an IC50 of 10 to 100 nM. In the case of `Cn1nnc(-c2ccc(Nc3cn(-c4c(Cl)cccc4Cl)nc3C(N)=O)nc2)n1` [compound 434, 1-(2,6-dichlorophenyl)-4-((5-(2-methyl-2H-tetrazol-5-yl)pyridin-2-yl)amino)-1H-pyrazole-3-carboxamide], the IC50 is reported as 100 to 1000 nM. `Cc1cccc2[nH]nc(-c3ccc(Nc4cn(-c5c(Cl)cccc5Cl)nc4C(N)=O)cn3)c12` [compound 427, 1-(2,6-dichlorophenyl)-4-((6-(4-methyl-3H-indazol-3-ylidene)-1,6-dihydropyridin-3-yl)amino)-1H-pyrazole-3-carboxamide] was tested, and the IC50 was 100 to 1000 nM. `Cc1cc(C(F)(F)F)nn1-c1ccc(Nc2cn(-c3c(Cl)cccc3Cl)nc2C(N)=O)cc1` [compound 257, 1-(2,6-dichlorophenyl)-4-((4-(5-methyl-3-(trifluoromethyl)-1H-pyrazol-1-yl)phenyl)amino)-1H-pyrazole-3-carboxamide] showed an IC50 of 100 to 1000 nM. `CC1(C)CN(C(=O)c2ccc(Nc3cn(-c4c(Cl)cccc4Cl)nc3C(N)=O)nc2)C1` [compound 465, 1-(2,6-dichlorophenyl)-4-((5-(3,3-dimethylazetidine-1-carbonyl)pyridin-2-yl)amino)-1H-pyrazole-3-carboxamide] showed an IC50 of 100 to 1000 nM. With `NC(=O)c1nn(-c2c(Cl)cccc2Cl)cc1Nc1ccc(-n2nc3c(c2C(F)(F)F)CCCC3)cc1` [compound 236, 1-(2,6-dichlorophenyl)-4-((4-(3-(trifluoromethyl)-4,5,6,7-tetrahydro-2H-indazol-2-yl)phenyl)amino)-1H-pyrazole-3-carboxamide] the IC50 was 100 to 1000 nM. With `CCn1cc(C(F)(F)F)nc1-c1ccc(Nc2cn(-c3c(Cl)cccc3Cl)nc2C(N)=O)cn1` [compound 339, 1-(2,6-dichlorophenyl)-4-((6-(1-ethyl-4-(trifluoromethyl)-1H-imidazol-2-yl)pyridin-3-yl)amino)-1H-pyrazole-3-carboxamide] the IC50 was 100 to 1000 nM. Work on `NC(=O)c1nn(-c2c(F)cccc2F)cc1Nc1ccc(N)cn1` [compound 6, 4-((5-aminopyridin-2-yl)amino)-1-(2,6-difluorophenyl)-1H-pyrazole-3-carboxamide] yielded an IC50 of 100 to 1000 nM. Work on `CCn1nc(C(F)(F)F)nc1-c1ccc(Nc2cn(-c3c(Cl)cccc3Cl)nc2C(N)=O)cc1` [compound 278, 1-(2,6-dichlorophenyl)-4-((4-(1-ethyl-3-(trifluoromethyl)-1H-1,2,4-triazol-5-yl)phenyl)amino)-1H-pyrazole-3-carboxamide] yielded an IC50 of 100 to 1000 nM. Work on `NC(=O)c1nn(-c2c(Cl)cccc2Cl)cc1Nc1ccc(-n2cncn2)nc1` [compound 337, 4-((6-(1H-1,2,4-triazol-1-yl)pyridin-3-yl)amino)-1-(2,6-dichlorophenyl)-1H-pyrazole-3-carboxamide] yielded an IC50 of 100 to 1000 nM. `CCCn1cc(C(F)(F)F)nc1-c1ccc(Nc2cn(-c3c(Cl)cccc3Cl)nc2C(N)=O)cc1` [compound 311, 1-(2,6-dichlorophenyl)-4-((4-(1-propyl-4-(trifluoromethyl)-1H-imidazol-2-yl)phenyl)amino)-1H-pyrazole-3-carboxamide] was tested, and the IC50 was 100 to 1000 nM. In the case of `CCNC(=O)c1ccc(Nc2cn(-c3c(F)cccc3F)nc2C(N)=O)cn1` [compound 24, 5-((3-carbamoyl-1-(2,6-difluorophenyl)-1H-pyrazol-4-yl)amino)-N-ethylpicolinamide], the IC50 is reported as 100 to 1000 nM. With `CC(C)n1nc(C(F)(F)F)nc1-c1ccc(Nc2cn(-c3c(Cl)cccc3Cl)nc2C(N)=O)cc1` [compound 280, 1-(2,6-dichlorophenyl)-4-((4-(1-isopropyl-3-(trifluoromethyl)-1H-1,2,4-triazol-5-yl)phenyl)amino)-1H-pyrazole-3-carboxamide] the IC50 was 100 to 1000 nM. In the case of `Cc1cc(Nc2cn(-c3ccccc3F)nc2C(N)=O)ncn1` [compound 5, 1-(2-fluorophenyl)-4-((6-methylpyrimidin-4-yl)amino)-1H-pyrazole-3-carboxamide], the IC50 is reported as 100 to 1000 nM. `CCOc1cccc(Cl)c1-n1cc(Nc2cnn(C)c2)c(C(N)=O)n1` [compound 372, 1-(2-chloro-6-ethoxyphenyl)-4-((1-methyl-1H-pyrazol-4-yl)amino)-1H-pyrazole-3-carboxamide] showed an IC50 of 100 to 1000 nM. `NC(=O)c1nn(-c2c(Cl)cccc2Cl)cc1Nc1ccc(-n2nnc3ccccc32)cc1` [compound 81, 4-((4-(1H-benzo[d][1,2,3]triazol-1-yl)phenyl)amino)-1-(2,6-dichlorophenyl)-1H-pyrazole-3-carboxamide] was tested, and the IC50 was 100 to 1000 nM.
